Biological target: T1, Human thrombin (Homo sapiens, UniProt P00734)
T1 construct: conversion of the proenzyme prothrombin to the active enzyme thrombin; purchased Sigma Chem Co T 6769
Experiment: Test A: determination of thrombin clotting time (TT)
Format: biochemical
Conditions: concentration of inhibitor that doubles the thrombin clotting time for human plasma
Procedure: Determination of Thrombin Clotting Time (TT)
The inhibitor solution (25 μL) was incubated with plasma (25 μL) for three minutes. Human thrombin (T 6769; Sigma Chem Co) in buffer solution, pH 7.4 (25 μL) was then added and the clotting time measured in an automatic device (KC 10; Amelung).
The clotting time in seconds was plotted against the inhibitor concentration, and the IC50TT was determined by interpolation.
IC50TT is the concentration of inhibitor in the test that doubles the thrombin clotting time for human plasma.

Compound	IC50 [nM]
COc1ccc2c(c1)C(O)(C(=O)N1CCC1C(=O)N(C)Cc1ccc(C(=N)N)cc1)CCC2 (single isomer, unassigned) [Example 37, (S)- or (R)-1-Hydroxy-7-methoxytetralin-1-yl-C(O)-Aze-N(Me)-Bzl-4-C(NH2)NH×HOAc]	< 300
N=C(N)c1ccc(CNC(=O)[C@@H]2CCN2C(=O)C2(O)c3ccccc3-c3ccccc32)cc1 [Example 38, 9-Hydroxyfluoren-9-yl-C(O)-Aze-Pab×HOAc]	< 300
